Assay results taken from US10745395B2, “Compounds for their use as drugs for the treatment and/or the prevention of infection(s) caused by biofilm-forming bacteria” (CENTRE NATIONAL DE LA RECHERCHE SCIENTIFIQUE, priority 2014, dated 2020).

Legend:
Type in all cases: cell-based, Pseudomonas aeruginosa
[1] = tested on: P. aeruginosa strain PAR 20; experiment: Number of viable bacteria in early and mature biofilm (viable count)
Procedure, shortened: (§1)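 Biofilm contents of P. aeruginosa PAR 5, PAR 20 or PAR 50 wells sampled at 0-96 h, iminosugars added at 48 h. Decimal dilutions in TSB were plated on McConkey agar, incubated 24 h at 37° C., and colonies counted as log CFU/ml; detection limit 100 CFU/ml.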

[2] = tested on: P. aeruginosa strain PAR 50; experiment: as above
Procedure, shortened: as §1

[3] = tested on: P. aeruginosa strain PAR 5; experiment: as above
Procedure, shortened: as §1

[4] = tested on: P. aeruginosa strain PAR 5 biofilm; experiment: Reduction of biofilm growth (percent vs culture control)
Procedure, shortened: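 Iminosugars at 0.9 mM final were added to P. aeruginosa in TSB either at seeding (early biofilm, 48 h at 37° C) or 48 h after bacterial adherence (mature biofilm). Biofilm stained with Congo Red and read spectrophotometrically; percent decrease in thickness is the mean of 3 measurements relative to untreated control (100%).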

[5] = tested on: P. aeruginosa strain PAR 20 biofilm; experiment: Early biofilm model, Congo red staining; details: for absorbance (Congo red, biofilm formation): early biofilm, 0.9 mM, 492 nm
Procedure, shortened: (§2)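 Biofilm set up from 1×10^8 CFU/ml P. aeruginosa in TSB, centrifuged 10 min at 2000 rpm; iminosugars at 0.9 mM added at seeding, incubated up to 48 h at 37° C. Biofilm stained with 0.1% Congo red for 30 min and read at 492 nm at 0, 0.5, 8, 24 and 48 h, with viable counts in parallel; TSB-only cultures served as control.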

[6] = tested on: P. aeruginosa strain PAR 5 biofilm; experiment: Early biofilm model, Congo red staining; details: for absorbance (Congo red, biofilm formation): 0.9 mM, 492 nm
Procedure, shortened: as §2

[7] = tested on: P. aeruginosa strain PAR 50 biofilm; experiment: Early biofilm model, Congo red staining; details: for absorbance (Congo red, biofilm formation): early biofilm, 0.9 mM, 492 nm
Procedure, shortened: as §2

[8] = tested on: P. aeruginosa strain PAR 50 biofilm; experiment: Reduction of biofilm growth (percent vs culture control)
Procedure, shortened: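 Biofilms grown in TSB at 37 °C; compounds at 0.9 mM final added at inoculation (early biofilm, 48 h) or 48 h after bacterial adherence (mature biofilm). Congo Red-stained biofilm read by spectrophotometry, mean of 3 measurements; reduction expressed as percent versus untreated control set to 100%.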

[9] = tested on: P. aeruginosa strain PAR 20 biofilm; experiment: as above
[10] = tested on: P. aeruginosa strain PAR 20 biofilm; experiment: Mature biofilm model, Congo red staining; details: for absorbance (Congo red, biofilm development): mature biofilm, compound added 48 h after induction of biofilm
Procedure, shortened: (§3)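 Compounds added 48 h after bacterial adherence in 96-well plates; biofilm checked at 48, 48.5, 56, 72 and 96 h. Biomass stained with 0.1% Congo red for 30 min at room temperature, washed, absorbance read at 492 nm. Triplicate means ±SD.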

[11] = tested on: P. aeruginosa strain PAR 5 biofilm; experiment: Mature biofilm model, Congo red staining; details: for absorbance (Congo red, biofilm development): mature biofilm, compound added 48 h after induction of biofilm
Procedure, shortened: as §3

[12] = tested on: P. aeruginosa strain PAR 50 biofilm; experiment: Mature biofilm model, Congo red staining; details: for absorbance (Congo red, biofilm development): mature biofilm, compound added 48 h after induction of biofilm
Procedure, shortened: as §3

[13] = in comparison with culture control

OCC(O)C[C@H]1NC[C@H](O)[C@H](O)[C@H]1O (stereo partly drawn) [Compound 2, β-1-C-(2,3-dihydroxypropyl)-1,5-dideoxy-1,5-imino-L-arabinitol]
number of viable P. aeruginosa ([1]; early biofilm, 0 h): 2 × 10^6 CFU/ml
number of viable P. aeruginosa ([1]; early biofilm, 8 h): 4 × 10^7 CFU/ml
number of viable P. aeruginosa ([1]; early biofilm, 24 h): 3 × 10^8 CFU/ml
number of viable P. aeruginosa ([1]; early biofilm, 48 h): 1 × 10^9 CFU/ml
number of viable P. aeruginosa ([1]; mature biofilm, 56 h): 4 × 10^8 CFU/ml
number of viable P. aeruginosa ([1]; mature biofilm, 72 h): 3 × 10^7 CFU/ml
number of viable P. aeruginosa ([1]; mature biofilm, 96 h): 3 × 10^8 CFU/ml
number of viable P. aeruginosa ([2]; early biofilm, 0 h): 3 × 10^7 CFU/ml
number of viable P. aeruginosa ([2]; early biofilm, 8 h): 2 × 10^8 CFU/ml
number of viable P. aeruginosa ([2]; early biofilm, 24 h): 7 × 10^8 CFU/ml
number of viable P. aeruginosa ([2]; early biofilm, 48 h): 1 × 10^8 CFU/ml
number of viable P. aeruginosa ([2]; mature biofilm, 56 h): 6 × 10^9 CFU/ml
number of viable P. aeruginosa ([2]; mature biofilm, 72 h): 1 × 10^9 CFU/ml
number of viable P. aeruginosa ([2]; mature biofilm, 96 h): 9 × 10^9 CFU/ml
number of viable P. aeruginosa ([3]; early biofilm, 0 h): 8 × 10^6 CFU/ml
number of viable P. aeruginosa ([3]; early biofilm, 8 h): 2 × 10^7 CFU/ml
number of viable P. aeruginosa ([3]; early biofilm, 24 h): 1 × 10^7 CFU/ml
number of viable P. aeruginosa ([3]; early biofilm, 48 h): 1 × 10^7 CFU/ml
number of viable P. aeruginosa ([3]; mature biofilm, 56 h): 4 × 10^8 CFU/ml
number of viable P. aeruginosa ([3]; mature biofilm, 72 h): 2 × 10^8 CFU/ml
number of viable P. aeruginosa ([3]; mature biofilm, 96 h): 5 × 10^8 CFU/ml
reduction of biofilm growth ([4]; 8 hours of incubation): about 90%
reduction of biofilm growth ([4]; 24 hours of incubation): about 90%
reduction of biofilm growth ([4]; 48 hours of incubation): about 25%
reduction of biofilm growth ([4]; 72 hours of incubation): about 10%
effect on biofilm growth ([4]; notably an early biofilm): can reduce the biofilm growth
absorbance (Congo red, biofilm formation) ([5]; 8 hours): about 0.75 a.u.
absorbance (Congo red, biofilm formation) ([5]; 24 hours): about 0.9 a.u.
absorbance (Congo red, biofilm formation) ([5]; 48 hours): about 0.9 a.u.
effect on formation of an early biofilm [5, 13]: inhibit the formation of an early biofilm
biofilm formation at 8 hours, 24 hours and 48 hours ([6]; early biofilm): no biofilm formation
absorbance (Congo red, biofilm formation) ([6]; early biofilm, 8 hours): about 0.25 a.u.
absorbance (Congo red, biofilm formation) ([6]; early biofilm, 24 hours): about 0.25 a.u.
absorbance (Congo red, biofilm formation) ([6]; early biofilm, 48 hours): about 0.25 a.u.
effect on formation of an early biofilm [6, 13]: inhibit the formation of an early biofilm
absorbance (Congo red, biofilm formation) ([7]; 8 hours): about 0.8 a.u.
absorbance (Congo red, biofilm formation) ([7]; 24 hours): about 0.7 a.u.
absorbance (Congo red, biofilm formation) ([7]; 48 hours): about 1.1 a.u.
effect on formation of an early biofilm [7, 13]: inhibit the formation of an early biofilm
reduction of biofilm growth ([8]; 8 hours of incubation): about 50%
reduction of biofilm growth ([8]; 24 hours of incubation): about 70%
reduction of biofilm growth ([8]; 48 hours of incubation): about 0%
reduction of biofilm growth ([8]; 72 hours of incubation): about 20%
effect on biofilm growth ([8]; notably an early biofilm): can reduce the biofilm growth
reduction of biofilm growth ([9]; 8 hours of incubation): about 45%
reduction of biofilm growth ([9]; 24 hours of incubation): about 45%
reduction of biofilm growth ([9]; 48 hours of incubation): about 0%
reduction of biofilm growth ([9]; 72 hours of incubation): about 0%
effect on biofilm growth ([9]; notably an early biofilm): can reduce the biofilm growth
influence on mature biofilm formation [10]: weak influence
absorbance (Congo red, biofilm development) ([10]; 48 hours): about 0.6 a.u.
absorbance (Congo red, biofilm development) ([10]; 56 hours): about 0.7 a.u.
absorbance (Congo red, biofilm development) ([10]; 72 hours): about 1.1 a.u.
absorbance (Congo red, biofilm development) ([10]; 96 hours): about 2.0 a.u.
influence on mature biofilm formation [11]: weak influence
absorbance (Congo red, biofilm development) ([11]; 48 hours): about 0.75 a.u.
absorbance (Congo red, biofilm development) ([11]; 56 hours): about 1.0 a.u.
absorbance (Congo red, biofilm development) ([11]; 72 hours): about 1.25 a.u.
absorbance (Congo red, biofilm development) ([11]; 96 hours): about 1.5 a.u.
influence on mature biofilm formation [12]: weak influence
absorbance (Congo red, biofilm development) ([12]; 48 hours): about 2.0 a.u.
absorbance (Congo red, biofilm development) ([12]; 56 hours): about 1.75 a.u.
absorbance (Congo red, biofilm development) ([12]; 72 hours): about 1.75 a.u.
absorbance (Congo red, biofilm development) ([12]; 96 hours): about 2.0 a.u.
